Assay results reported in ChEMBL document CHEMBL1131083, “Tipranavir (PNU-140690): a potent, orally bioavailable nonpeptidic HIV protease inhibitor of the 5,6-dihydro-4-hydroxy-2-pyrone sulfonamide class” (J Med Chem, 1998).

Legend:
[1] = target: Human immunodeficiency virus type 1 protease (Human immunodeficiency virus 1) (UniProt Q72874); experiment: Inhibition of HIV-1 protease in a cell culture assay using HIV-1 IIIB infected H9 cells.; assay type: functional, cell-based
[2] = target: Human immunodeficiency virus type 1 protease (Human immunodeficiency virus 1, UniProt Q72874); experiment: Inhibitory activity against HIV-1 protease in tandem assay.
[3] = Inhibition of HIV-1 protease in a cell culture assay using HIV-1 IIIB infected H9 cells.
[4] = tested on: H9; experiment: Inhibitory activity against HIV-1 Protease in a cell culture assay using HIV-1 IIIB infected H9 cells at 3 uM; assay type: functional; conditions: Homo sapiens
[5] = target: Human immunodeficiency virus type 1 protease (Human immunodeficiency virus 1) (UniProt Q72874); experiment: Inhibitory activity against HIV-1 Protease in tandem assay; conditions: concentration not given here
[6] = tested on: H9; experiment: Inhibitory activity against HIV-1 Protease in a cell culture assay using HIV-1 IIIB infected H9 cells at 1 uM; assay type: functional; conditions: Homo sapiens

Row | Compound | IC90 [1] | Ki [2] | further results
1 | CCCC1(CCc2ccccc2)CC(=O)C(C(c2cccc(NS(=O)(=O)c3ccc(C#N)cc3)c2)C(C)(C)C)=C(O)O1 (stereo not given) | 3000 nM | 12 nM | –
2 | CCC[C@@]1(CCc2ccccc2)CC(=O)C([C@@H](CC)c2cccc(NS(=O)(=O)c3cn(C)cn3)c2)=C(O)O1 | > 1000 nM | 0.3 nM | –
3 | CCCC1(CCc2ccccc2)CC(=O)C(C(CC)c2cccc(NS(=O)(=O)c3ccc(F)cc3)c2)=C(O)O1 (stereo not given) | – | 6.1 nM | IC50 [3]: 1200 nM
4 | CCC[C@@]1(CCc2ccccc2)CC(=O)C([C@@H](CC)c2cccc(NS(=O)(=O)c3ccc(C(F)(F)F)cn3)c2)=C(O)O1 (stereo in doubt; 39d) | – | – | IC50 [3]: 410 nM
5 | CCCC1(CCC)CC(=O)C(Cc2cccc(NS(=O)(=O)c3cn(C)cn3)c2)=C(O)O1 | – | – | inhibition at 3 µM [4]: 5%; inhibition [5]: 50%
6 | CCC(C1=C(O)OC(CC(C)C)(CC(C)C)CC1=O)c1cccc(NS(=O)(=O)c2cn(C)cn2)c1 (stereo not given) | 7400 nM | 3 nM | –
7 | CCCC1(CCc2ccccc2)CC(=O)C(C(CC)c2cccc(NS(=O)(=O)CCC)c2)=C(O)O1 (stereo not given) | – | > 1 nM | –
8 | CCCC1(CCc2ccccc2)CC(=O)C(C(CC)c2cccc(NS(=O)(=O)c3cn(C)cn3)c2)=C(O)O1 (stereo not given) | – | 1.2 nM | –
9 | CCCCCC1(CCCCC)CC(=O)C(C(CC)c2cccc(NS(=O)(=O)c3cn(C)cn3)c2)=C(O)O1 (stereo not given) | < 3000 nM | 2.6 nM | –
10 | CCCC1(CCc2ccc(F)cc2)CC(=O)C(C(CC)c2cccc(NS(=O)(=O)c3cn(C)cn3)c2)=C(O)O1 (stereo not given) | 2000 nM | 3 nM | –
11 | CCCC1(CCc2ccccc2)CC(=O)C(C(CC)c2cccc(NS(=O)(=O)c3cccc4cccnc34)c2)=C(O)O1 (stereo not given) | – | 3.1 nM | IC50 [3]: 1000 nM
12 | CCC(C1=C(O)OC(COCCOCCOC)(COCCOCCOC)CC1=O)c1cccc(NS(=O)(=O)c2cn(C)cn2)c1 (stereo not given) | – | 28 nM | inhibition at 3 µM [4]: 0%
13 | CCC(C1=C(O)OC(C23C[C@H]4C[C@@H](C2)C[C@@H](C3)C4)CC1=O)c1cccc(NS(=O)(=O)c2cn(C)cn2)c1 (stereo not given in full) | – | 23 nM | –
14 | CCC[C@@]1(CCc2ccccc2)CC(O)=C([C@H](CC)c2cccc(NS(=O)(=O)c3ccc(C#N)cn3)c2)C(=O)O1 | – | – | IC50 [3]: 40 nM
15 | CCC[C@@]1(CCc2ccccc2)CC(=O)C([C@H](CC)c2cccc(NS(=O)(=O)c3cn(C)cn3)c2)=C(O)O1 | 560 nM | 0.06 nM | –
16 | CCC[C@]1(CCc2ccccc2)CC(=O)C([C@H](CC)c2cccc(NS(=O)(=O)c3cn(C)cn3)c2)=C(O)O1 | 1000 nM | 0.12 nM | –
17 | CCCC1(CCc2ccccc2)CC(=O)C(C(CC)c2cccc(NS(=O)(=O)c3ccccc3)c2)=C(O)O1 (stereo not given) | – | – | IC50 [3]: 1600 nM
18 | CCC[C@@]1(CCc2ccccc2)CC(=O)C([C@@H](CC)c2cccc(NS(=O)(=O)c3ccc(C(F)(F)F)cn3)c2)=C(O)O1 (stereo in doubt; 39c) | – | – | IC50 [3]: 1700 nM
19 | CCCC1(CCc2ccccc2)CC(=O)C(C(CC)c2cccc(NS(=O)(=O)c3ccc(C#N)cc3)c2)=C(O)O1 (stereo not given) | – | 8.2 nM | IC50 [3]: 1100 nM
20 | CCC[C@@]1(CCc2ccccc2)CC(O)=C([C@H](CC)c2cccc(NS(=O)(=O)c3ccc(C(F)(F)F)cn3)c2)C(=O)O1 [TIPRANAVIR] | – | 0.008 nM | IC50 [3]: 30 nM
21 | CCCC1(CCc2ccccc2)CC(=O)C(Cc2cccc(NS(=O)(=O)c3cn(C)cn3)c2)=C(O)O1 (stereo not given) | – | 13 nM | inhibition at 1 µM [6]: 0%
22 | CCCC1(CCc2ccccc2)CC(=O)C(C(c2cccc(NS(=O)(=O)c3ccc(C(F)(F)F)cn3)c2)C(C)(C)C)=C(O)O1 (stereo not given) | 990 nM | 4.3 nM | –

More lines, main results first:

Row | IC90 [1] | Ki [2] | Compound | further results
23 | 1000 nM | 0.87 nM | CCCC1(CCC)CC(=O)C(C(c2cccc(NS(=O)(=O)c3cn(C)cn3)c2)C(C)(C)C)=C(O)O1 (stereo not given) | –
24 | 2900 nM | 1.7 nM | CCC(C1=C(O)OC(CCC2CC2)(CCC2CC2)CC1=O)c1cccc(NS(=O)(=O)c2cn(C)cn2)c1 (stereo not given) | –
25 | 2000 nM | 1.8 nM | CCCC1(CCC)CC(=O)C(C(CC)c2cccc(NS(=O)(=O)c3cn(C)cn3)c2)=C(O)O1 (stereo not given) | –
26 | 340 nM | 1.9 nM | CCCC1(CCc2ccccc2)CC(=O)C(C(c2cccc(NS(=O)(=O)c3ccc(C#N)cn3)c2)C(C)(C)C)=C(O)O1 (stereo not given) | –
27 | 740 nM | 0.2 nM | CCCC1(CCc2ccccc2)CC(=O)C(C(c2cccc(NS(=O)(=O)c3ccc(N)cn3)c2)C(C)(C)C)=C(O)O1 (stereo not given) | –
28 | 1000 nM | 0.71 nM | CCCC1(CCc2ccccc2)CC(=O)C(C(c2cccc(NS(=O)(=O)c3cn(C)cn3)c2)C2CC2)=C(O)O1 (stereo not given) | –
29 | 2000 nM | 1 nM | CCC(C1=C(O)OC(CCc2ccccc2)(CCc2ccccc2)CC1=O)c1cccc(NS(=O)(=O)c2cn(C)cn2)c1 (stereo not given) | –
30 | 840 nM | 0.018 nM | CCC[C@]1(CCc2ccccc2)CC(=O)C(C(CC)c2cccc(NS(=O)(=O)c3ccc(C(F)(F)F)cn3)c2)=C(O)O1 (stereo not given in full) | –
31 | 470 nM | 0.1 nM | CCCC1(CCc2ccccc2)CC(=O)C(C(CC)c2cccc(NS(=O)(=O)c3ccc(C#N)cn3)c2)=C(O)O1 (stereo not given) | –
32 | 890 nM | 0.04 nM | CCC[C@]1(CCc2ccccc2)CC(=O)C([C@H](CC)c2cccc(NS(=O)(=O)c3ccc(C#N)cn3)c2)=C(O)O1 | –
33 | > 3000 nM | 2.3 nM | CCCC1(CCc2ccccc2)CC(=O)C(C(c2cccc(NS(=O)(=O)c3ccc([N+](=O)[O-])cn3)c2)C(C)(C)C)=C(O)O1 (stereo not given) | –
34 | 1000 nM | 0.1 nM | CCC[C@@]1(CCc2ccccc2)CC(=O)C([C@@H](CC)c2cccc(NS(=O)(=O)c3ccc(C#N)cn3)c2)=C(O)O1 | –
35 | 690 nM | 1.2 nM | CCCC1(CCc2ccccc2)CC(=O)C(C(c2cccc(NS(=O)(=O)c3cn(C)cn3)c2)C(C)(C)C)=C(O)O1 (stereo not given) | –
36 | 3000 nM | 0.52 nM | CCCC1(CCC)CC(=O)C(C(c2cccc(NS(=O)(=O)c3cn(C)cn3)c2)C2CC2)=C(O)O1 (stereo not given) | –
